Biological target: recombinant DYRK1A kinase (Homo sapiens (Human), UniProt Q13627)
Test: DYRK1A kinase assay (Ser/Thr 18 peptide Z-lyte FRET)
Format: biochemical
Details: DYRK1A kinase activity, Z-lyte Ser/Thr 18 peptide, 15 μM ATP; method text calls the value IC50; read-out: EC50 (the source's name)
How it was run: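 Steps: combine 0.25 μg/mL kinase, 15 μM ATP and 4 μM peptide with test compound; incubate 1 h at room temperature; add diluted development reagent for another hour; read coumarin and fluorescein emission at Ex 400. The emission ratio yields percent phosphorylation, from which IC50 is derived.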

SMILES	IC50 [nM]
COc1nc(N[C@H]2C[C@](C)(C(=O)NC3CC(F)(F)C3)C2)nn2ccc(-c3ccc4nc(C)n(CC(F)F)c4c3)c12 [Compound 504, trans-N-(3,3-Difluorocyclobutyl)-3-((5-(1-(2,2-difluoroethyl)-2-methyl-1H-benzo[d]imidazol-6-yl)-4-methoxypyrrolo[2,1-f][1,2,4]triazin-2-yl)amino)-1-methylcyclobutane-1-carboxamide]	1.4
COc1nc(N[C@@H]2CC[C@H]2OC)nn2ccc(-c3cnc4nccn4c3)c12 [Compound 930, 5-(Imidazo[1,2-a]pyrimidin-6-yl)-4-methoxy-N-((1R,2R)-2-methoxycyclobutyl)pyrrolo[2,1-f][1,2,4]triazin-2-amine]	6.9
CCC(=O)N1CC[C@H](Nc2nc(OC)c3c(-c4ccc5nnn(CC(F)F)c5c4)ccn3n2)[C@H](F)C1 [Compound 773, 1-((3R,4S)-4-((5-(1-(2,2-Difluoroethyl)-1H-benzo[d][1,2,3]triazol-6-yl)-4-methoxypyrrolo[2,1-f][1,2,4]triazin-2-yl)amino)-3-fluoropiperidin-1-yl)propan-1-one]	0.7
COc1nc(N[C@@H]2CCN(C)CC2(F)F)nn2ccc(-c3ccc4ncccc4c3)c12 [Compound 319, (R)—N-(3,3-Difluoro-1-methylpiperidin-4-yl)-4-methoxy-5-(quinolin-6-yl)pyrrolo[2,1-f][1,2,4]triazin-2-amine]	2.2
COc1nc(N[C@H]2CCN(C3(C#N)COC3)C[C@H]2F)nn2ccc(-c3ccc4nnn(CC(F)F)c4c3)c12 [Compound 769, 3-((3R,4S)-4-((5-(1-(2,2-Difluoroethyl)-1H-benzo[d][1,2,3]triazol-6-yl)-4-methoxypyrrolo[2,1-f][1,2,4]triazin-2-yl)amino)-3-fluoropiperidin-1-yl)oxetane-3-carbonitrile]	2.9
COc1nc(N[C@H]2CC[C@]3(CCO3)CC2)nn2ccc(-c3cnc4nccn4c3)c12 [Compound 274, 5-(Imidazo[1,2-a]pyrimidin-6-yl)-4-methoxy-N-((4s,7s)-1-oxaspiro[3.5]nonan-7-yl)pyrrolo[2,1-f][1,2,4]triazin-2-amine]	1
COc1nc(N[C@H]2CCN(CCF)C[C@H]2F)nn2ccc(-c3ccc4ncccc4c3)c12 [Compound 314, N-((3R,4S)-3-Fluoro-1-(2-fluoroethyl)piperidin-4-yl)-4-methoxy-5-(quinolin-6-yl)pyrrolo[2,1-f][1,2,4]triazin-2-amine]	4.1
COc1nc(N[C@H]2CCN(C(C)=O)C[C@H]2F)nn2ccc(-c3ccc4nnn(CC(F)F)c4c3)c12 [Compound 771, 1-((3R,4S)-4-((5-(1-(2,2-Difluoroethyl)-1H-benzo[d][1,2,3]triazol-6-yl)-4-methoxypyrrolo[2,1-f][1,2,4]triazin-2-yl)amino)-3-fluoropiperidin-1-yl)ethan-1-one]	0.1
CCN1CC[C@@H](Nc2nc(OC)c3c(-c4ccc5ncnn5c4)ccn3n2)C(F)(F)C1 [Compound 577, (R)-5-([1,2,4]Triazolo[1,5-a]pyridin-6-yl)-N-(1-ethyl-3,3-difluoropiperidin-4-yl)-4-methoxypyrrolo[2,1-f][1,2,4]triazin-2-amine]	6.4
COc1nc(N[C@H]2CCN(C(C)=O)C[C@H]2F)nn2ccc(-c3cc(F)c4nnn(CC(F)F)c4c3)c12 [Compound 816, 1-((3R,4S)-4-((5-(1-(2,2-Difluoroethyl)-4-fluoro-1H-benzo[d][1,2,3]triazol-6-yl)-4-methoxypyrrolo[2,1-f][1,2,4]triazin-2-yl)amino)-3-fluoropiperidin-1-yl)ethan-1-one]	2.8
COc1nc(N[C@@H]2CN(C(C)=O)C[C@@H]2F)nn2ccc(-c3ccc4nnn(CC(F)(F)F)c4c3)c12 [Compound 912, 1-((3S,4R)-3-Fluoro-4-((4-methoxy-5-(1-(2,2,2-trifluoroethyl)-1H-benzo[d][1,2,3]triazol-6-yl)pyrrolo[2,1-f][1,2,4]triazin-2-yl)amino)pyrrolidin-1-yl)ethan-1-one]	0.8
CNC(=O)c1cnn2ccc(-c3ccn4nc(N[C@H]5CC[C@](C)(O)CC5)nc(OC)c34)cc12 [Compound 401, 5-(2-(((1r,4r)-4-Hydroxy-4-methylcyclohexyl)amino)-4-methoxypyrrolo[2,1-f][1,2,4]triazin-5-yl)-N-methylpyrazolo[1,5-a]pyridine-3-carboxamide]	2.7
COc1nc(N[C@H]2CCN(C(C)=O)C[C@H]2F)nn2ccc(-c3cc(F)c4nc(C)n(CC(F)F)c4c3)c12 [Compound 521, 1-((3R,4S)-4-((5-(1-(2,2-Difluoroethyl)-4-fluoro-2-methyl-1H-benzo[d]imidazol-6-yl)-4-methoxypyrrolo[2,1-f][1,2,4]triazin-2-yl)amino)-3-fluoropiperidin-1-yl)ethan-1-one]	2.6
COc1nc(N[C@@H]2CCN(C)CC2(F)F)nn2ccc(-c3ccc4ncnn4c3)c12 [Compound 576, (R)-5-([1,2,4]Triazolo[1,5-a]pyridin-6-yl)-N-(3,3-difluoro-1-methylpiperidin-4-yl)-4-methoxypyrrolo[2,1-f][1,2,4]triazin-2-amine]	7.3
COc1nc(NC2CCC3(CC2)COC3)nn2ccc(-c3ccc4nccnc4c3)c12 [Compound 390, 4-Methoxy-5-(quinoxalin-6-yl)-N-(2-oxaspiro[3.5]nonan-7-yl)pyrrolo[2,1-f][1,2,4]triazin-2-amine]	3
COc1nc(N[C@H]2C[C@@H](OCCO)C2)nn2ccc(-c3ccc4nccnc4c3)c12 [Compound 329, 2-(cis-3-((4-Methoxy-5-(quinoxalin-6-yl)pyrrolo[2,1-f][1,2,4]triazin-2-yl)amino)cyclobutoxy)ethan-1-ol]	1.9
COc1nc(NCC(C)(C)O)nn2ccc(-c3ccc4nnn(CC(F)F)c4c3)c12 [Compound 696, 1-((5-(1-(2,2-Difluoroethyl)-1H-benzo[d][1,2,3]triazol-6-yl)-4-methoxypyrrolo[2,1-f][1,2,4]triazin-2-yl)amino)-2-methylpropan-2-ol]	1.3
COc1nc(NC2CC3(CCN(C(C)=O)CC3)C2)nn2ccc(-c3ccc4nnn(C)c4c3)c12 [Compound 227, 1-(2-((4-Methoxy-5-(1-methyl-1H-benzo[d][1,2,3]triazol-6-yl)pyrrolo[2,1-f][1,2,4]triazin-2-yl)amino)-7-azaspiro[3.5]nonan-7-yl)ethan-1-one]	3.6
COCCO[C@H]1CC[C@H](Nc2nc(OC)c3c(-c4ccc5nccn5c4)ccn3n2)CC1 [Compound 52, 5-(Imidazo[1,2-a]pyridin-6-yl)-4-methoxy-N-(trans-4-(2-methoxyethoxy)cyclohexyl)pyrrolo[2,1-f][1,2,4]triazin-2-amine]	5.2
COc1nc(N[C@H]2C[C@@](C)(O)C2)nn2ccc(-c3ccc4nc(C)n(CCO)c4c3)c12 [Compound 169, cis-3-((5-(1-(2-Hydroxyethyl)-2-methyl-1H-benzo[d]imidazol-6-yl)-4-methoxypyrrolo[2,1-f][1,2,4]triazin-2-yl)amino)-1-methylcyclobutan-1-ol]	2.1
COc1nc(N[C@H]2CCN(CC(C)(C)O)C[C@H]2F)nn2cc(F)c(-c3ccc4ncccc4c3)c12 [Compound 1058, 1-((3R,4S)-3-Fluoro-4-((6-fluoro-4-methoxy-5-(quinolin-6-yl)pyrrolo[2,1-f][1,2,4]triazin-2-yl)amino)piperidin-1-yl)-2-methylpropan-2-ol]	2.3
